We go through 3 compounds from US4826813A, “4'-Methyl-β-mercapto-β,β-cyclopentamethylenepropionic acid vasopressin antagonists” (SmithKline Beckman Corporation, priority 1987, dated 1989).

Test [1] deals with vasopressin receptors (V2 -receptors) (Sus scrofa, UniProt P32307). Kind of test: biochemical. The procedure: (§1) V2 -antagonistic activity toward the natural anti-diuretic hormone (anti-ADH activity) is determined, in vitro, in the medullary tissue of hog or human kidneys and, in vivo, in the hydropenic rat. The in vitro assay procedures for vasopressin stimulated adenylate cyclase activation or vasopressin binding activity are described by F. Stassen et al., J. Pharmacology and Experimental Therapeutics 223, 50-54 (1982). V1 -antagonistic activity is determined by procedures using the rat thoracic aorta tissue and plasma membranes of rat liver. These procedures are described in the noted Stassen publication and in a publication at the 1st International Conference on Diuretics, Miami, Fla., March (1984). Oxytocin antagonism is determined as described by W. Sawyer et al., Endocrinology 106, 81 (1979).
vasopressin receptors (V2 -receptors), sequence (P32307 whole entry): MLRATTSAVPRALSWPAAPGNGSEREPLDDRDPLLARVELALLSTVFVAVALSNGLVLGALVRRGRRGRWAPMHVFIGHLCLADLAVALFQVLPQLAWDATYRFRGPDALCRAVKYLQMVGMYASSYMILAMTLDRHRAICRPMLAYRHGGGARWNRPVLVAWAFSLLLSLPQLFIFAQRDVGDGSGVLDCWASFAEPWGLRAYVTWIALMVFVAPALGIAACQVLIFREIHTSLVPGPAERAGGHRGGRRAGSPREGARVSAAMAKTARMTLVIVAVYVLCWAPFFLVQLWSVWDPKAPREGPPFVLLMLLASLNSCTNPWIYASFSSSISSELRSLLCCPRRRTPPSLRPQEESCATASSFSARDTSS
(§2) The hydropenic rat screen and the hog kidney assay are known to the art, Huffman et al., U.S. Pat. No. 4,469,679.

For test [2], the target named is vasopressin stimulated adenylate cyclase (V2 -receptors) (Sus scrofa, UniProt P32307). Briefly: biochemical. The method, then:
as §1, §2

*1 amine or outer side, *2 acyl side, *3 side chain or, on linkers, in order; H or OH if unused. Where a SMILES comes first, the peptide text is derived from it. Bridges are numbered along the chain shown (N, C = ends). [ ]: non-standard residue; d: D form. X2 = C[C@H]1CC[C@@](CC(=O)[*:1])(S[*:2])CC1

vasopressin stimulated adenylate cyclase (V2 -receptors), sequence (P32307 whole entry): as above

`CCOc1ccc(C[C@H]2NC(=O)C[C@]3(CC[C@H](C)CC3)SSC[C@@H](C(=O)N3CCC[C@H]3C(=O)N[C@@H](CCCNC(=N)N)C(=O)NCC(N)=O)NC(=O)[C@H](CC(N)=O)NC(=O)[C@H](C(C)C)NC(=O)[C@H](Cc3ccccc3)NC2=O)cc1` [DTyr(Et) GlyNH2, [1-(4'-methyl-β-mercapto-β,β-cyclopentamethylene propionic acid)-2-(O-ethyl)-D-tyrosine-4-valine-8-arginine]-vasopressin] ([dY](Et)FVNCPRG-NH2; linker N-5 via X2): the results for the Ki in test [1] and in test [2] were 13 nM and 4.2 nM, respectively.

`CCOc1ccc(C[C@H]2NC(=O)C[C@]3(CC[C@H](C)CC3)SSC[C@@H](C(=O)N3CCC[C@H]3C(=O)N[C@@H](CCCNC(=N)N)C(N)=O)NC(=O)[C@H](CC(N)=O)NC(=O)[C@H](C(C)C)NC(=O)[C@H](Cc3ccccc3)NC2=O)cc1` [DTyr(Et) NH2, [1-(4'-methyl-β-mercapto-β,β-cyclopentamethylenepropionic acid)-2-(O-ethyl)-D-tyrosine-4-valine-8-arginine-9-desglycine]-vasopressin] ([dY](Et)FVNCPR-NH2; linker N-5 via X2): in test [1], the Ki (usually a measure of affinity in units of concentration, obtained from inhibition or displacement) stood at 19 nM.

Take `COc1ccc(C[C@@H]2NC(=O)C[C@]3(CC[C@H](C)CC3)SSC[C@@H](C(=O)N3CCC[C@H]3C(=O)N[C@@H](CCCNC(=N)N)C(=O)NCC(N)=O)NC(=O)[C@H](CC(N)=O)NC(=O)[C@H](C(C)C)NC(=O)[C@H](Cc3ccccc3)NC2=O)cc1` [LTyr(Me) GlyNH2] (Y(Me)FVNCPRG-NH2; linker N-5 via X2): the Ki is 130 nM in test [1] and 44 nM in test [2].
